Data from patent publication US10844077B2, “Thiazolyl-containing compounds for treating proliferative diseases” (Dana-Farber Cancer Institute, Inc., priority 2014, dated 2020).
Values joined by “and” are separate entries in the source; they are usually repeats but may differ in a detail not shown here. Identical values can stand only once.

Legend:
PRP4 = PRP4 (Homo sapiens (Human), UniProt Q13523)
Method: (§1) The cells were harvested and lysed. The lysates were directly labeled with an ATP-biotin probe. Bound kinases were identified and quantitated by ACTIVX as described in Patricelli et al., Biochemistry, 2007, 46(2): 350-358. The compounds were tested in duplicates against duplicate or quadruplicate control samples.

PRPK = PRPK (Homo sapiens (Human), UniProt Q96S44)
Method: as §1

MAPKAPK3 = MAPKAPK3 (Homo sapiens (Human), UniProt Q16644)
Method: as §1

PCTAIRE2 = PCTAIRE2 (Homo sapiens (Human), UniProt Q00537)
Method: as §1

PCTAIRE1 = PCTAIRE1 (Homo sapiens (Human), UniProt Q00536)
Method: as §1

PCTAIRE1, PCTAIRE3 = experiment: KINATIV assay; type: cell-based; settings: 1 μM, 90 minutes, BCWM.1 cells
Description: (§2) The cells were harvested and lysed.

PCTAIRE2, PCTAIRE3 = experiment: KINATIV assay; type: cell-based; settings: 1 μM, 90 minutes, BCWM.1 cells
Description: as §2

FES = FES (Homo sapiens (Human), UniProt P07332); experiment: KINATIV assay; type: cell-based; settings: 1 μM, 90 minutes, BCWM.1 cells
Outline: (§3)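 An ATP-biotin probe is applied directly to lysates of harvested cells, and the kinases it binds are identified and quantified via ACTIVX.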

RSKL1 = RSKL1 (Homo sapiens (Human), UniProt Q96S38); experiment: KINATIV assay; type: cell-based; settings: 1 μM, 90 minutes, BCWM.1 cells
Outline: as §3

MSK2 domain1 = MSK2 domain1 (Homo sapiens (Human), UniProt O75676); experiment: KINATIV assay; type: cell-based; settings: 1 μM, 90 minutes, BCWM.1 cells
Outline: as §3

JAK1 = JAK1 (Homo sapiens (Human), UniProt P23458); experiment: KINATIV assay; type: cell-based; settings: 1 μM, 90 minutes, BCWM.1 cells
Outline: as §3

TBK1 = TBK1 (Homo sapiens (Human), UniProt Q9UHD2); experiment: KINATIV assay; type: cell-based; settings: 1 μM, 90 minutes, BCWM.1 cells
Outline: as §3

Wnk1, Wnk2, Wnk4 = experiment: KINATIV assay; type: cell-based; settings: 1 μM, 90 minutes, BCWM.1 cells
Outline: as §3

STK33 = STK33 (Homo sapiens (Human), UniProt Q9BYT3); experiment: KINATIV assay; type: cell-based; settings: 1 μM, 90 minutes, BCWM.1 cells
STK33, sequence (Q9BYT3 whole entry): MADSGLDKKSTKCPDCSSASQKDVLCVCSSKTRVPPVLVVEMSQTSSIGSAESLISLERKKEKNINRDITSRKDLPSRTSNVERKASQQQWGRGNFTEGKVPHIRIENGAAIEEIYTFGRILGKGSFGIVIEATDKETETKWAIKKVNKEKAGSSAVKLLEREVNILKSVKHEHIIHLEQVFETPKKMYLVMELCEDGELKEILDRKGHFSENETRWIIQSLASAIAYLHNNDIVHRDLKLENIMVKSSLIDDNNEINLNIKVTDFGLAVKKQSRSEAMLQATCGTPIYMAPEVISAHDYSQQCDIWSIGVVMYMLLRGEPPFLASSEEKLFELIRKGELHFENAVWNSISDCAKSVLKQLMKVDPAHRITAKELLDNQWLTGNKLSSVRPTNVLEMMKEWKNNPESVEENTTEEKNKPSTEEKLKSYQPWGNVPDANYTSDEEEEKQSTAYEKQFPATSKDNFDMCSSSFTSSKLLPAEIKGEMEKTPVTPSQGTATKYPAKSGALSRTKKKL
Outline: as §3

PIK3CB = PIK3CB (Homo sapiens (Human), UniProt P42338); experiment: KINATIV assay; type: cell-based; settings: 1 μM, 90 minutes, BCWM.1 cells
Outline: as §3

MLKL = MLKL (Homo sapiens (Human), UniProt Q8NB16); experiment: KINATIV assay; type: cell-based; settings: 1 μM, 90 minutes, BCWM.1 cells
Outline: as §3

NEK9 = NEK9 (Homo sapiens (Human), UniProt Q8TD19); experiment: KINATIV assay; type: cell-based; settings: 1 μM, 90 minutes, BCWM.1 cells
NEK9, sequence (Q8TD19 whole entry): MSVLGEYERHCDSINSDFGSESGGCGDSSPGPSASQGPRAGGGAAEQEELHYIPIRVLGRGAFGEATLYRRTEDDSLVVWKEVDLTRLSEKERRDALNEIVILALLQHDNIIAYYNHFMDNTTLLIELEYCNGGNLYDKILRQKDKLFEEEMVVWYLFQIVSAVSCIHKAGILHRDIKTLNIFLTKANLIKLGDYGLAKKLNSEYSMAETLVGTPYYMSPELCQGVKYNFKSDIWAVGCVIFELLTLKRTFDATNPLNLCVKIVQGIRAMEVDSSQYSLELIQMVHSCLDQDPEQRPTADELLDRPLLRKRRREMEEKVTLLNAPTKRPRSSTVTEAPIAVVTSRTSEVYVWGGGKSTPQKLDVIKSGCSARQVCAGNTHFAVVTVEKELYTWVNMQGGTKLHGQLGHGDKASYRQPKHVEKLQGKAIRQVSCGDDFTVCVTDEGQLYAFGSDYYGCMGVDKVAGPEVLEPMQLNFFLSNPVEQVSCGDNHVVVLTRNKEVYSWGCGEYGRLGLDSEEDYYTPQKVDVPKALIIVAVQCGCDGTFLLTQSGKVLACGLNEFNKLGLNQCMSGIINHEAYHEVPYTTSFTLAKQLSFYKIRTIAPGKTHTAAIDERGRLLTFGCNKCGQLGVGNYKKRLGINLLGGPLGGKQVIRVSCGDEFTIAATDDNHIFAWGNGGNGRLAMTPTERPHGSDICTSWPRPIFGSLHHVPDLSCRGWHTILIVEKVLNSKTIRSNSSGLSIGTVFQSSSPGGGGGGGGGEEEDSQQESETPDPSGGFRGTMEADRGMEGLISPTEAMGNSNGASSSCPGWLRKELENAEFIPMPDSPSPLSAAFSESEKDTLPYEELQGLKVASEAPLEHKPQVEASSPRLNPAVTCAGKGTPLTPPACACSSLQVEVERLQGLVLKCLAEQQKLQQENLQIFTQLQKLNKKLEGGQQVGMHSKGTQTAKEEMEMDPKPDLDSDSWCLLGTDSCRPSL
Outline: as §3

MST4, YSK1 = experiment: KINATIV assay; type: cell-based; settings: 1 μM, 90 minutes, BCWM.1 cells
Outline: as §3

IRE1 = IRE1 (Homo sapiens (Human), UniProt O75460); experiment: KINATIV assay; type: cell-based; settings: 1 μM, 90 minutes, BCWM.1 cells
Outline: as §3

ULK1 = ULK1 (Homo sapiens (Human), UniProt O75385); experiment: KINATIV assay; type: cell-based; settings: 1 μM, 90 minutes, BCWM.1 cells
Outline: as §3

ABL, ARG = experiment: KINATIV assay; type: cell-based; settings: 1 μM, 90 minutes, BCWM.1 cells
Outline: as §3

NEK7 = NEK7 (Homo sapiens (Human), UniProt Q8TDX7); experiment: KINATIV assay; type: cell-based; settings: 1 μM, 90 minutes, BCWM.1 cells
Outline: as §3

NEK2 = NEK2 (Homo sapiens (Human), UniProt P51955); experiment: KINATIV assay; type: cell-based; settings: 1 μM, 90 minutes, BCWM.1 cells
Outline: as §3

ATR = ATR (Homo sapiens (Human), UniProt Q13535); experiment: KINATIV assay; type: cell-based; settings: 1 μM, 90 minutes, BCWM.1 cells
Outline: as §3

p38d, p38g = experiment: KINATIV assay; type: cell-based; settings: 1 μM, 90 minutes, BCWM.1 cells
Outline: as §3

LATS2 = LATS2 (Homo sapiens (Human), UniProt Q9NRM7); experiment: KINATIV assay; type: cell-based; settings: 1 μM, 90 minutes, BCWM.1 cells
Outline: as §3

MLK3 = MLK3 (Homo sapiens (Human), UniProt Q16584); experiment: KINATIV assay; type: cell-based; settings: 1 μM, 90 minutes, BCWM.1 cells
Outline: as §3

ACK = ACK (Homo sapiens (Human), UniProt Q07912); experiment: KINATIV assay; type: cell-based; settings: 1 μM, 90 minutes, BCWM.1 cells
ACK, sequence (Q07912 whole entry): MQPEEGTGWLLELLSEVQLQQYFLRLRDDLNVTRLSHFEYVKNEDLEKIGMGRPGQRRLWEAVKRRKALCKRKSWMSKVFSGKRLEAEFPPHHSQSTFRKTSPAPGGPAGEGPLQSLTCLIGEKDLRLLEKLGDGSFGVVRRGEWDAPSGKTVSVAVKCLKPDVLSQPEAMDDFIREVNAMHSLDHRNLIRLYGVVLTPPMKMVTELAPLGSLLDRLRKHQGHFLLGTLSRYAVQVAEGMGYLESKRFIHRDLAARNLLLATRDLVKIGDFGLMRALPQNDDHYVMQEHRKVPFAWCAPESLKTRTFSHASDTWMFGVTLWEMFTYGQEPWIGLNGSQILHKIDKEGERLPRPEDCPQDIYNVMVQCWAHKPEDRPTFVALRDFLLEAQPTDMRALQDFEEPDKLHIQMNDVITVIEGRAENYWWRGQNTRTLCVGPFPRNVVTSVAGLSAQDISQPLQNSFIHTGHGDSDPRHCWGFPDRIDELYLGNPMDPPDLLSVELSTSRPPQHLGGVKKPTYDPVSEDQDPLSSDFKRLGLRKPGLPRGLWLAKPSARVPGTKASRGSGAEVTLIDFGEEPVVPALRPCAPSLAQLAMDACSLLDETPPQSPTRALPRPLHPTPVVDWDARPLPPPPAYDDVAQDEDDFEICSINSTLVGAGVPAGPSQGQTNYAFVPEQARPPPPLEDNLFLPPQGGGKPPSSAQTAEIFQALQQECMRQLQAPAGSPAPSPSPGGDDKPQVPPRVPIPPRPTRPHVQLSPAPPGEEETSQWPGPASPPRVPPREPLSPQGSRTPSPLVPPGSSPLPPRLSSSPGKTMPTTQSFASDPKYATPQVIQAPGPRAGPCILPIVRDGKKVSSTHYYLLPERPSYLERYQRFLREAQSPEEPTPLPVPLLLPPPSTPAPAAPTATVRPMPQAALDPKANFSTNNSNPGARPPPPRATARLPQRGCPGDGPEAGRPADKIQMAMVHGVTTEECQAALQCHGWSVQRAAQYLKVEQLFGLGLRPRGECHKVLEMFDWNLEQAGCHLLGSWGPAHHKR
Outline: as §3

MASTL = MASTL (Homo sapiens (Human), UniProt Q96GX5); experiment: KINATIV assay; type: cell-based; settings: 1 μM, 90 minutes, BCWM.1 cells
MASTL, sequence (Q96GX5 whole entry): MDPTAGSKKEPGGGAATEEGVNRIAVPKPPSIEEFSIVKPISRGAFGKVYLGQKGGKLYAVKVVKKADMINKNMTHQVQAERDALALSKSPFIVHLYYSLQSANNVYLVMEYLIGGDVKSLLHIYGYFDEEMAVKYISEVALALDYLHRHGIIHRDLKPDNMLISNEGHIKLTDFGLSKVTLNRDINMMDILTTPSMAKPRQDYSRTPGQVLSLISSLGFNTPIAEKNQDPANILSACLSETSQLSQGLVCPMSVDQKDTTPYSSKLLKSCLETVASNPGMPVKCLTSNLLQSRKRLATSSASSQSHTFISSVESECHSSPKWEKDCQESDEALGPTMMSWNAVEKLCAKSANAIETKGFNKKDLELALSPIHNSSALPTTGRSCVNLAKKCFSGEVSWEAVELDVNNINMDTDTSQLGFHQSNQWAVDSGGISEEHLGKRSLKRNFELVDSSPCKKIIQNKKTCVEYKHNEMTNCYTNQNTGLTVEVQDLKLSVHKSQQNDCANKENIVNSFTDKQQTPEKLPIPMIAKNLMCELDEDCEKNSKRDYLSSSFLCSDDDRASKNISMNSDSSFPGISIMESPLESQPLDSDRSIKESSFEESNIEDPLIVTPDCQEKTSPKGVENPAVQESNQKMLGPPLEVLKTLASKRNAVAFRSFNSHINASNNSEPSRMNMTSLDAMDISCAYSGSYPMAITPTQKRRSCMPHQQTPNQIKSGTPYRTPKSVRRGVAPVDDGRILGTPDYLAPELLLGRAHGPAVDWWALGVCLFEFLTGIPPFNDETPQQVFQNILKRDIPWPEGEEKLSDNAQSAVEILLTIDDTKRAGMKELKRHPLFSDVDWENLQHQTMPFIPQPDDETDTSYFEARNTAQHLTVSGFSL
Outline: as §3

CASK = CASK (Homo sapiens (Human), UniProt O14936); experiment: KINATIV assay; type: cell-based; settings: 1 μM, 90 minutes, BCWM.1 cells
Outline: as §3

KHS1 = KHS1 (Homo sapiens (Human), UniProt Q9Y4K4); experiment: KINATIV assay; type: cell-based; settings: 1 μM, 90 minutes, BCWM.1 cells
Outline: as §3

BTK = BTK (Homo sapiens (Human), UniProt Q06187); experiment: KINATIV assay; type: cell-based; settings: 1 μM, 90 minutes, BCWM.1 cells
BTK, sequence (Q06187 whole entry, looked up): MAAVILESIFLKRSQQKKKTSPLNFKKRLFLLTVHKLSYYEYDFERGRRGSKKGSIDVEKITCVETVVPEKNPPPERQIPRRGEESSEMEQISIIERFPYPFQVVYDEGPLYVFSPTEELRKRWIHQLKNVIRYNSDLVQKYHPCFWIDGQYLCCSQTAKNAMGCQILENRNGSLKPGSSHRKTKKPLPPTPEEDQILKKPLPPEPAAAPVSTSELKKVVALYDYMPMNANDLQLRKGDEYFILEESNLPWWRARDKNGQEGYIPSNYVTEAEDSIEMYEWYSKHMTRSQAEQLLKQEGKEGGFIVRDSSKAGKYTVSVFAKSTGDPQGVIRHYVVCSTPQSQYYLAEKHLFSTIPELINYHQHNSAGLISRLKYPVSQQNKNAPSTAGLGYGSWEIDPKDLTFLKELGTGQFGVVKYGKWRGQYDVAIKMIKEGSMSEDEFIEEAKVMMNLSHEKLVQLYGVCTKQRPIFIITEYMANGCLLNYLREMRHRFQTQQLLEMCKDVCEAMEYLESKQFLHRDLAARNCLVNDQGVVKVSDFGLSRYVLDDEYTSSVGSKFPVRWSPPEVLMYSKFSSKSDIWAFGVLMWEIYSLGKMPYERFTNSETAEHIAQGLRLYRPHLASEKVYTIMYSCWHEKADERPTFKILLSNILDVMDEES
Outline: as §3

HPK1 = HPK1 (Homo sapiens (Human), UniProt Q92918); experiment: KINATIV assay; type: cell-based; settings: 1 μM, 90 minutes, BCWM.1 cells
HPK1, sequence (Q92918 whole entry): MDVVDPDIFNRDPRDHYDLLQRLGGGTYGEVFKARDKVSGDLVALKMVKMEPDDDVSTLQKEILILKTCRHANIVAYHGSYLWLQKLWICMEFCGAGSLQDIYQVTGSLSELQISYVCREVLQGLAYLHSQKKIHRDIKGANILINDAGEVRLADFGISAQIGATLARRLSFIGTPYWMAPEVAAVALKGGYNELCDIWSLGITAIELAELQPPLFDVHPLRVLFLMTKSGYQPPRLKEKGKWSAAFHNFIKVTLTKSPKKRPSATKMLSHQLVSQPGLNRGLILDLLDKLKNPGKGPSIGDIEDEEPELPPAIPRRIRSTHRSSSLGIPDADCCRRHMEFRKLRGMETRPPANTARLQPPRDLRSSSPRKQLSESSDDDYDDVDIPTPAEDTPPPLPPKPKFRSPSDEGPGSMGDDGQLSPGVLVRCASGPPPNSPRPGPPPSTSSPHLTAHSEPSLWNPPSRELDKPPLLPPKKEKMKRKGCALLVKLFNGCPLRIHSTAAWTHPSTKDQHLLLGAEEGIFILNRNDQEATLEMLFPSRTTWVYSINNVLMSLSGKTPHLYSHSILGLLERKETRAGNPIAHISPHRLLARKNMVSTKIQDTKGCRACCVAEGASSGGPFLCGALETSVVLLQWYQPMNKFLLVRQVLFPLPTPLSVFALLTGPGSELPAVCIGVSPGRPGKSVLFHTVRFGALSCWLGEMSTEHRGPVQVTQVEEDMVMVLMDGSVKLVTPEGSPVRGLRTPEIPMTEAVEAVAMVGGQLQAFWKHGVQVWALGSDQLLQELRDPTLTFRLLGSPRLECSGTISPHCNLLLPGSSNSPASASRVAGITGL
Outline: as §3

KSR1, KSR2 = experiment: KINATIV assay; type: cell-based; settings: 1 μM, 90 minutes, BCWM.1 cells
Outline: as §3

ROCK1 = ROCK1 (Homo sapiens (Human), UniProt Q13464); experiment: KINATIV assay; type: cell-based; settings: 1 μM, 90 minutes, BCWM.1 cells
Outline: as §3

LRRK2 = LRRK2 (Homo sapiens (Human), UniProt Q5S007); experiment: KINATIV assay; type: cell-based; settings: 1 μM, 90 minutes, BCWM.1 cells
Outline: as §3

MAP3K2, MAP3K3 = experiment: KINATIV assay; type: cell-based; settings: 1 μM, 90 minutes, BCWM.1 cells
Outline: as §3

Compound	% change of MS signal compared to control sample (PRP4)	% change of MS signal compared to control sample (PRPK)	% change of MS signal compared to control sample (MAPKAPK3)	% change of MS signal compared to control sample (PCTAIRE2)	% change of MS signal compared to control sample (PCTAIRE1)	% change of MS signal compared to control sample (PCTAIRE1, PCTAIRE3)	% change of MS signal compared to control sample (PCTAIRE2, PCTAIRE3)	% change of MS signal compared to control sample (FES)	% change of MS signal compared to control sample (RSKL1)	% change of MS signal compared to control sample (MSK2 domain1)	% change of MS signal compared to control sample (JAK1)	% change of MS signal compared to control sample (TBK1)	% change of MS signal compared to control sample (Wnk1, Wnk2, Wnk4)	% change of MS signal compared to control sample (STK33)	% change of MS signal compared to control sample (PIK3CB)	% change of MS signal compared to control sample (MLKL)	% change of MS signal compared to control sample (NEK9)	% change of MS signal compared to control sample (MST4, YSK1)	% change of MS signal compared to control sample (IRE1)	% change of MS signal compared to control sample (ULK1)	other results
C=CC(=O)N1CCC(CNc2nccc(Nc3ncc(C(=O)Nc4c(C)cccc4C)s3)n2)C1 (racemic) [Example I-8]	−10.7%	3.7%	0.5%	8.5%	32.9%	19.8%	28.8%	−13.3%	35.0%	−47.7%	−1.9%	−2.9%	−16.3%	29.8%	−10.1%	−17.5%	−1.3% and −0.3%	19.3%	−1.5%	16.1%	% change of MS signal compared to control sample (ABL, ARG): >90% and >97%; % change of MS signal compared to control sample (NEK7): −1.0%; % change of MS signal compared to control sample (NEK2): −3.0%; % change of MS signal compared to control sample (ATR): −24.9%; % change of MS signal compared to control sample (p38d, p38g): 3.3%; % change of MS signal compared to control sample (LATS2): 10.6%; % change of MS signal compared to control sample (MLK3): 11.7%; % change of MS signal compared to control sample (ACK): 69.9% and 82.4%; % change of MS signal compared to control sample (MASTL): −16.9% and −9.5%; % change of MS signal compared to control sample (CASK): 43.0%; % change of MS signal compared to control sample (KHS1): −8.4%; % change of MS signal compared to control sample (BTK): 98.0% and >90%; % change of MS signal compared to control sample (HPK1): 32.8% and 24.6%; % change of MS signal compared to control sample (KSR1, KSR2): −8.8%; % change of MS signal compared to control sample (ROCK1): 4.4%; % change of MS signal compared to control sample (LRRK2): −12.2%; % change of MS signal compared to control sample (MAP3K2, MAP3K3): 19.4%
C=CC(=O)N1CC[C@@H](Nc2nccc(Nc3ncc(C(=O)Nc4c(C)cccc4C)s3)n2)C1 [Example I-4]	6.9%	−13.6%	7.0%	13.4%	19.0%	12.7%	27.9%	−15.6%	10.7%	−9.6%	−5.7%	−34.8%	−0.5%	−23.0%	−61.3%	−9.4%	−0.1% and 4.4%	20.5%	−44.3%	16.2%	% change of MS signal compared to control sample (ABL, ARG): >90% and 91.7%; % change of MS signal compared to control sample (NEK7): −7.7%; % change of MS signal compared to control sample (NEK2): 22.3%; % change of MS signal compared to control sample (ATR): −66.1%; % change of MS signal compared to control sample (p38d, p38g): −2.7%; % change of MS signal compared to control sample (LATS2): −9.2%; % change of MS signal compared to control sample (MLK3): −27.2%; % change of MS signal compared to control sample (ACK): 27.0% and 22.8%; % change of MS signal compared to control sample (MASTL): −2.9% and −0.3%; % change of MS signal compared to control sample (CASK): 23.2%; % change of MS signal compared to control sample (KHS1): −2.1%; % change of MS signal compared to control sample (BTK): 97.0% and >90%; % change of MS signal compared to control sample (HPK1): 26.6%; % change of MS signal compared to control sample (KSR1, KSR2): −8.9%; % change of MS signal compared to control sample (ROCK1): 6.7%; % change of MS signal compared to control sample (LRRK2): −5.7%; % change of MS signal compared to control sample (MAP3K2, MAP3K3): 24.8%
